From patent US20230235289A1, “METHOD FOR FIBROBLAST REJUVENATION BY MECHANICAL REPROGRAMMING AND REDIFFERENTIATION” (Paul Scherrer Institut, priority 2020, published 2023)

Assays:
[1] = tested on: FC (3T3 clumps); test: Nuclear dynamics by time-lapse confocal microscopy of Hoechst 33342 stained nuclei; format: cell-based, mouse; conditions: TSA-treated FC compared to control FC
Protocol: Nuclear dynamics were analyzed from the decorrelation of the nuclear images in time as described previously(37). Time-lapse live-imaging of nucleus stained with Hoechst 33342 (ThermoFisher Scientific) was done in confocal mode with time intervals of one minute for up to 32 minutes in PR, FC and FC+TSA conditions. One Pearson correlation coefficient (PCC) value was calculated from two lists of pixel intensity of the same nucleus captured in different time points with a certain time lag. For each cell, one PCC curve was drawn which connecting all PCCs (as y) with the increasing time lags (as x) as represented in dim color in FIG. 5A. The mean PCC curves for all cells in each condition, were drawn in bright color in FIG. 5A. The mean PCC curves in each condition were fitted by equation y=(1−α)+α exp(−t/τ)−η, where y refers to PCC value, t is time lags, fitting parameter α is drop rate, τ is time constant, η is noise.

[2] = tested on: FC (3T3 clumps); test: H3K9ac immunofluorescence; format: cell-based, mouse; conditions: TSA-treated FC compared to untreated FC
Protocol: (§1) Cells embedded in Collagen-I gel were fixed with 4% Paraformaldehyde (Sigma) in PBS buffer (pH 7.4) for 25 min, followed by washing with PBS+100 mM glycine buffer (5 min×3). Cells were permeabilized using 0.5% Triton (Sigma-Aldrich) in PBS for 20 min, followed by washing with PBS-glycine buffer (5 min×3). After that, cells were blocked with 10% goat serum (ThermoFisher Scientific) in IF wash buffer (PBS+0.2% Triton+0.2% tween 20) for 3 h at room temperature. Next, cells were incubated overnight with different primary antibodies diluted in blocking buffer, followed by washing with IF wash buffer (15 min×3). […] Cell nuclei were stained with NucBlue Live Ready Probes (Molecular Probes; Thermo Fisher Scientific) in PBS for 10 min at room temperature, and filamentous actin was labeled using phalloidin Alexa Fluor 488 or 568 (1:100; Molecular Probes; Thermo Fisher Scientific) for 45 min.
(§2) Fluorescent images of 3D spheroids and cells embedded in 3D Collagen-I gel were acquired by using Nikon AIR laser scanning confocal microscope (Nikon Instruments Inc, Japan), at either 20× magnification (Plan Apo 20× ELWD, NA 0.8) or 63× magnification (1.25 NA oil objective) with identical acquisition settings. […] The sprouting length of each spheroid embedded in 3D collagen matrix was measured from the large field fluorescent micrograph of actin using AngioTools software.

[3] = tested on: FC embedded in 3D collagen matrix (FCG); test: pMLC immunofluorescence of sprouted cells in 3D collagen matrix; format: cell-based, mouse
Protocol: as §1, §2

[4] = tested on: 6 day-old spheroids of NIH3T3 mouse embryonic fibroblasts; test: Cell sprouting from partially reprogrammed spheroids in 3D collagen matrix (AngioTools); format: cell-based; conditions: addition to spheroids sprouting in collagen matrix
Excerpt: These 6 day-old spheroids were embedded in collagen gels and cultured for at least 2 days (FIG. 1A). Within few hours, cells originating from the spheroids progressively invaded the collagen matrix and migrated either individually as unicellular sprouts (single cells) or collectively as complex capillary-like structures (FIG. 1B). In addition to cell invasion, morphological modifications in the spheroid core itself were detected. While the spheroids initially appeared as a compact structure, subsequent cell migration induced spheroid expansion occurred and led to breaches in the spheroid core. […]
as §2, with “The fluorescence intensity was measured for each protein in its respective channel and the number of gH2Ax foci per nucleus was determined using custom-written code in Fiji (NI) MATLAB (Mathworks) and IMARIS8. The” for “The”

[5] = tested on: RF embedded in fibrillary collagen matrix; test: Collagen fibre remodeling/stiffening by matrix-embedded fibroblasts (immunostained collagen); format: cell-based, mouse; conditions: for collagen fiber stiffening: addition to spheroids sprouting in collagen matrix
Excerpt: In order to characterize these RF in vitro, one compared the gel contraction abilities of cells derived from PR spheroids or from FC, both of which were equally embedded in the 3D collagen matrix. […] Fibroblasts are known to exert mechanical forces on the extracellular matrix surrounding them. […] Both RF and FCG embedded in fibrillary collagen matrix were able to remodel collagen fibrils into thicker bundles (FIG. 3F).
Cells embedded in Collagen-I gel were fixed with 4% Paraformaldehyde (Sigma) in PBS buffer (pH 7.4) for 25 min, followed by washing with PBS+100 mM glycine buffer (5 min×3). Cells were permeabilized using 0.5% Triton (Sigma-Aldrich) in PBS for 20 min, followed by washing with PBS-glycine buffer (5 min×3). After that, cells were blocked with 10% goat serum (ThermoFisher Scientific) in IF wash buffer (PBS+0.2% Triton+0.2% tween 20) for 3 h at room temperature. Next, cells were incubated overnight with different primary antibodies diluted in blocking buffer, followed by washing with IF wash buffer (15 min×3). Cells were then incubated with corresponding fluorescent-labeled secondary antibodies diluted in 5% goat serum in IF wash buffer for 3 h at room temperature. Cell nuclei were stained with NucBlue Live Ready Probes (Molecular Probes; Thermo Fisher Scientific) in PBS for 10 min at room temperature, and filamentous actin was labeled using phalloidin Alexa Fluor 488 or 568 (1:100; Molecular Probes; Thermo Fisher Scientific) for 45 min.
Fluorescent images of 3D spheroids and cells embedded in 3D Collagen-I gel were acquired by using Nikon AIR laser scanning confocal microscope (Nikon Instruments Inc, Japan), at either 20× magnification (Plan Apo 20× ELWD, NA 0.8) or 63× magnification (1.25 NA oil objective) with identical acquisition settings. In the Z dimension, each spheroid and 3D Collagen-I gel was scanned up to a depth of 50 μm, with a step size of 1 to 5 μm. Confocal images of either 512×512 or 1024×1024 pixels were obtained with an XY optical resolution of 0.42 μm or 0.21 μm, respectively. Time lapse imaging was done in confocal mode for up to 60 min and 18 h with 60 s and 30 m time intervals, respectively. Bright-field images were acquired using the EVOS FL Cell Imaging System (Thermo Fisher Scientific). For gel contraction assay, images of collagen gel at different days of cell growth were acquired with a mobile camera at a fixed magnification. The fluorescence intensity was measured for each protein in its respective channel and the number of gH2Ax foci per nucleus was determined using custom-written code in Fiji (NI) MATLAB (Mathworks) and IMARIS8. The sprouting length of each spheroid embedded in 3D collagen matrix was measured from the large field fluorescent micrograph of actin using AngioTools software.

CC(/C=C/C(=O)NO)=C\[C@@H](C)C(=O)c1ccc(N(C)C)cc1 [TSA, Trichostatin A]
nuclear dynamics [1]: increase in nuclear dynamics
H3K9ac levels [2]: significant increase
level of pMLC ([3]; TSA-treated FCG compared to untreated FCG and RF): higher level
contractility upon exposure to ECM-related cues ([3]; fibroblasts treated with the HDAC inhibitor): increased contractility

C=C1[C@@H](C)[C@H]2[C@H](Cc3ccccc3)NC(=O)[C@]23[C@H](OC(C)=O)/C=C/[C@@](C)(O)C(=O)[C@@H](C)C/C=C/[C@H]3[C@@H]1O [cytoD, cytochalasin D]
average sprouting length [4]: significant reduction
remodeling of collagen fibrils around RF ([5]; 4 μM): very less or no remodeling
collagen fiber stiffening [5]: drop

Cc1ccc2c(c1)C(=O)C1(O)CCN(c3ccccc3)C1=N2 (stereo not shown) [blebbistatin]
average sprouting length [4]: significant reduction
collagen fiber stiffening [5]: drop

C[C@@H](N)[C@H]1CC[C@H](C(=O)Nc2ccncc2)CC1 [Y-27632]
remodeling of collagen fibrils around RF ([5]; 25 μM): very less or no remodeling
